Assay results reported in patent US20240319171A1, “METHOD FOR SCREENING SUBSTANCE, SYSTEM FOR SCREENING SUBSTANCE, METHOD FOR PRODUCING A CLUMP FROM STEM CELLS, AND METHOD FOR PRODUCING DIFFERENTIATED CELLS” (priority 2023, published 2024).

Key:
[1] = system: human subject 1-derived induced fibroblasts; format: cell-based
[2] = system: human subject 1-derived induced fibroblasts; experiment: collagen production by induced fibroblasts after adding substance (subject 1); format: cell-based; conditions: FIG. 14A; for amount of the collagen produced: human subject 1-derived induced fibroblasts, compared with the control in which the addition was not carried out
Description: (§1) Skin cells were collected from a human subject 1 and a human subject 2, and iPS cells were induced from the skin cells from the respective subjects. Further, in the same manner as in Example 2, fibroblasts were induced from the human subject 1-derived iPS cells, and fibroblasts were induced from the human subject 2-derived iPS cells.

[3] = system: human subject 2-derived induced fibroblasts; experiment: collagen production by induced fibroblasts after adding substance (subject 2); format: cell-based; conditions: compared with the control in which the addition was not carried out, FIG. 14B
Description: as §1

[4] = system: human subject 2-derived induced fibroblasts; conditions: among phenoxyethanol, paraben, benzalkonium chloride, sodium salicylate, FIG. 15B
Experimental: In addition, phenoxyethanol, paraben, benzalkonium chloride, and sodium salicylate, which are respectively antiseptic agents, were prepared.

Structure (SMILES)	survival rate of cells [1]	amount of the collagen produced [2]	amount of the collagen produced [3]	survival rate of cells [4]	effectiveness in increasing the production amount of collagen, compared among added substances ([2]; induced fibroblasts derived from human subject 1, among vitamin C, retinol, iPS cell culture medium supernatant)
OCCOc1ccccc1 [phenoxyethanol]	highest				
CC1=C(/C=C/C(C)=C/C=C/C(C)=C/CO)C(C)(C)CCC1 [retinol]		increased	increased		
O=C([O-])c1ccccc1O.[Na+] [sodium salicylate]				highest	
O=C1O[C@H]([C@@H](O)CO)C(O)=C1O [vitamin C]		increased	increased		most effective
